From US20220365085A1, “B[…], THE USE OF B[…], SENSORS […] WITH THE SAID B[…] AND THE DETECTION METHOD OF SARS-COV-2 VIRUS” (SENSDX SPÓLKA AKCYJNA, priority 2019, published 2022)
Numbered stars: 1 amine (or outer) side, 2 acyl side, 3 side chain; on linkers, the order of the positions; unused ones are H or OH. Square brackets hold non-standard residues; d marks the D form. Peptide text beside a SMILES is read from it. * marks the point of attachment. ξ: configuration not given here. X1 = O=C([C@@H](N[*:1])c1cnc[nH]1)[*:2]; Ile(3ξ) = CCC(C)[C@H](N)C(=O)O; Lauroyl = CCCCCCCCCCCC(=O)*

Molecular target: WHN-N protein (SARS-CoV-2 nucleocapsid N protein) (Severe acute respiratory syndrome coronavirus 2, UniProt P0DTC9)
Format: binding

| Compound | specificity of the peptide sequence |
| --- | --- |
| CCCCCCCCCCCC(=O)N[C@H](C(=O)N[C@H](C(=O)N[C@@H](CO)C(=O)N[C@@H](CC(N)=O)C(=O)N[C@@H](Cc1c[nH]cn1)C(=O)N[C@@H](CO)C(=O)N[C@@H](Cc1c[nH]cn1)C(=O)N[C@@H](Cc1c[nH]cn1)C(=O)N[C@@H](Cc1c[nH]cn1)C(=O)N[C@@H](CC(=O)O)C(=O)N[C@H](C(=O)N[C@@H](CC(C)C)C(N)=O)C(C)CC)C(C)CC)c1cnc[nH]1 (stereo partly drawn) [11-KOD1, 11-Mrcpt-HISNHSHHHDIL-NH2] (Lauroyl-[X1][Ile(3ξ)]SNHSHHHD[Ile(3ξ)]L-NH2) | specific for the WHN-N protein |
| CCCCCCCCCCCC(=O)N[C@H](C(=O)N1CCC[C@H]1C(=O)N[C@H](C(=O)N[C@@H](Cc1ccc(O)cc1)C(=O)N[C@@H](Cc1c[nH]cn1)C(=O)N[C@@H](CCCCN)C(=O)N[C@@H](CC(C)C)C(N)=O)C(C)CC)[C@@H](C)O (some centres unmarked) [11-KOD7, 11-Mrcpt-TPIYHKL-NH2] (Lauroyl-TP[Ile(3ξ)]YHKL-NH2) | specific for SARS-CoV-2 virus |
